Experiments:
ACL = ACL (Homo sapiens (Human), UniProt P53396); experiment: ADP-Glo Assay; format: biochemical; details: 3 nM ACL, 15 μM ATP, 3 μM CoA, 300 μM Citrate
Description: Example 28. ADP-Glo Assay
Compounds of the present invention were evaluated in an ADP-GLO assay as follows: a) Dilute cpd 1:3 in succession in DMSO by hand for each cpds for 12 pts b) Add 0.1 μL diluted cpd solution to assay plate, each dose with 2 replicates c) Centrifuge 1000 RPM for 1 min d) Add 5 μL ACL working solution to 384-well assay plate, centrifuge 1000 RPM for 1 min e) Incubate at 25° C. for 15 min f) Add 5 μL substrate working solution to initiate reaction g) Final ACL reaction concentrations: 3 nM ACL, 15 μM ATP, 3 μM CoA, 300 μM Citrate, 0.01% Brij35, 4 mM DTT, 1% DMSO; h) Reference final conc: 30 uM starting Conc, 3× dilution, 11+0 points. Test cpd conc: 30/100 uM starting Conc, 3× dilution, 11+0 points. i) Incubate at 25° C. for 60 min j) Add 10 μL ADP Glo reagent, centrifuge 1000 RPM for 1 min k) Incubate at 25° C. for 40 min l) Add 20 μL kinase detection reagent, centrifuge 1000 RPM for 1 min m) Incubate at 25° C. for 40 min n) Read on Envision for US LUM as RLU

HepG2 cells [1] = experiment: ACLY HepG2 14C-pyruvate incorporation assay with serum (IC50 Cholesterol); format: cell-based; details: Homo sapiens, Table 7, with serum, IC50 Cholesterol per table title and b713 (column head prints Fatty Acid), read-out: ACLY HepG2 ^14C- Pyruvate Assay with serum IC50 Fatty Acid 96 well (IC50)
Description: (§1) Example 30. ACLY HepG2 ^14C-Pyruvate Incorporation Assay with Serum
(§2) Compounds of the invention were also assayed in an ACLY HepG2 ^14C-pyruvate incorporation assay with serum (IC50 Cholesterol) and (IC50 Fatty Acid). The protocol of the assay (below) was followed:
(§3) HepG2 cells were seed at 5 k cells/well in 96-well cell culture plate in DMEM with 10% FBS (heat inactivated and 25 mM glucose). After 48 hours, the medium was replaced with fresh medium containing 10% FBS (heat inactivated and 25 mM glucose).
(§4) After 18 hours, the medium was replaced with 200 uL of DMEM (5.5 mM glucose without pyruvate) with or without FBS containing compounds (30, 10, 3.33, 1.11, 0.370, 0.123, 0.041 uM). DMSO concentration was 0.5%. The cells were incubated with compounds at 37° C. for 1 hour.
(§5) 2 μci of [14C]-pyruvate was added per well and the cell samples were incubated at 37° C., 5% CO2 for 5 hours.
(§6) The medium was removed and placed into a 96-well polypropylene deep well plate. 200 uL of 0.1N NaOH was added to each well at room temperature to dissolve cell monolayer. The remaining cell suspension was pooled with medium in a 96-well polypropylene deep well plate. 68 uL of 50% KOH was added to the plate containing medium and cell suspensions and capped.
(§7) Cells were incubated at 70° C. for 1 hour, and then cooled to room temperature.
6. Cholesterol Extraction
1 mL petroleum ether was added per well to extract non-saponifyable lipids (primarily sterols such as cholesterol), shaken vigorously, and centrifuged at 1000 rpm for 5 minutes. 500 μL of the petroleum ether layer was then transferred to a 96 well plate and 200 ul of H2O was added, shaken vigorously, and centrifuged at 1000 rpm for 5 minutes. The petroleum ether layer 500 ul was transferred to a new 96-well plate and evaporated to dryness with SpeedVac overnight. 200 μL of scintillation cocktail was then added and shaken and transferred to a 96 well optiplate and counted using the Microbeta Liquid Scintillation Counter.

HepG2 cells [2] = experiment: ACLY HepG2 14C-pyruvate incorporation assay with serum (IC50 Fatty Acid); format: cell-based; details: Homo sapiens, Table 8, with serum, read-out: ACLY HepG2 ^14C- Pyruvate Assay with serum IC50 Fatty Acid 96 well (IC50)
Description: as §1, §2, §3, §4, §5, §6, §7
400 ul of the remaining 500 ul petroleum ether layer was removed and discard. 1 mL petroleum ether was added to the well, shaken vigorously, and centrifuged at 1000 rpm for 5 minutes. All 1100 ul of the petroleum ether layer removed and discarded. The aqueous phase was then acidified with 500 uL of concentrated HCl, checking pH of one or two extracts to make sure pH below 1 (critical, check by PH paper).
8. Fatty acids extraction
1 mL of petroleum ether was added per well to extract saponifyable lipids (extracted as fatty acids originating from saponified lipids such as triglycerides and phospholipids), shaken vigorously, centrifuged at 1000 rpm for 5 min, and 500 uL of the petroleum ether layer was then transferred to a new 96-well deep well plate. Repeat petroleum ether extraction step one more time and pool the petroleum ether extracts. Evaporate to dryness with SpeedVac overnight. 200 μL of scintillation cocktail was added and shaken and transferred to a 96 well optiplate and counted using the Microbeta Liquid Scintillation Counter.

ACC1 = ACC1 isolated from rat, mouse, monkey and human; cited from earlier work
ACC2 = ACC2 isolated from rat, mouse, monkey and human; cited from earlier work

Chain of ACL (P53396 whole entry, species assumed): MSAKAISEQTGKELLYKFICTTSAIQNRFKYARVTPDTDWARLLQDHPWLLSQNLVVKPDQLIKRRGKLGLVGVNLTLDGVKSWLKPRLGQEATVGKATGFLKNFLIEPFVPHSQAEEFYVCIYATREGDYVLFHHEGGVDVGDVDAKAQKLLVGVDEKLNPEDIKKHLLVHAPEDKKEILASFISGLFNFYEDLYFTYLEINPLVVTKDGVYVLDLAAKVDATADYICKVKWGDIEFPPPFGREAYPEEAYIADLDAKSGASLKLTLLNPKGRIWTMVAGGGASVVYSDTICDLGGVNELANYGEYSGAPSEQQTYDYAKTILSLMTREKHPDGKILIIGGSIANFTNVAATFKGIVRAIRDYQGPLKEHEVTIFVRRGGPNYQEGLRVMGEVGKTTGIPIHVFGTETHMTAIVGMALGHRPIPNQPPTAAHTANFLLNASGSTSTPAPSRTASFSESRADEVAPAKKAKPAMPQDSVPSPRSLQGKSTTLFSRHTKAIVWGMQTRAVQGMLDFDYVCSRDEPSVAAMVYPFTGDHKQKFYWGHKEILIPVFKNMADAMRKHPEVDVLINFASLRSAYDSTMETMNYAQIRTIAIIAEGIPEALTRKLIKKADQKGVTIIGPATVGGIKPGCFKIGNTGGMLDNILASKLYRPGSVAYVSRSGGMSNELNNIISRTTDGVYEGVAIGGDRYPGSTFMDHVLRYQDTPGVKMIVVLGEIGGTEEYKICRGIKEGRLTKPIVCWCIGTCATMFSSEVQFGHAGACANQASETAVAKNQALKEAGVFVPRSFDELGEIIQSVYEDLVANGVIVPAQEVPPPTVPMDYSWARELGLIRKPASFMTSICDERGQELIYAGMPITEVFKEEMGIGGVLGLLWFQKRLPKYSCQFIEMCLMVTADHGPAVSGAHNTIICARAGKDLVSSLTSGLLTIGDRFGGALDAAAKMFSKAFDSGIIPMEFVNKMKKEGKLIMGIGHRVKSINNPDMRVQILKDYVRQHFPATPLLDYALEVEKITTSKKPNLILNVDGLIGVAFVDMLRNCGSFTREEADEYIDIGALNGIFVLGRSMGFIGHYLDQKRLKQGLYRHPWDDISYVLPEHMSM

Compound | IC50 (ACL) [µM] | IC50 (HepG2 cells [1]) [µM] | IC50 (HepG2 cells [2]) [µM] | IC50 (ACC1) [µM] | IC50 (ACC2) [µM]
O=S(=O)(c1cc(Br)cc(Cl)c1O)n1c(-c2ccc(OC(F)(F)F)cc2)cc2cc(Cl)ccc21 [I-25, 4-bromo-2-chloro-6-((5-chloro-2-(4-(trifluoromethoxy)phenyl)-1H-indol-1-yl)sulfonyl)phenol] | 0.5 to 20 | ≤ 10 | ≤ 10 | – | –
O=C(c1c2ccccc2cc2ccccc12)N1CCC(N2CCC[C@@H](C(=O)N3CCOCC3)C2)CC1 [CP-640186] | – | – | – | ~0.06 | ~0.06
COc1ccc(-c2cc3cc(Cl)ccc3n2S(=O)(=O)c2cc(Br)cc(Cl)c2O)cn1 [I-28, 4-bromo-2-chloro-6-((5-chloro-2-(6-methoxypyridin-3-yl)-1H-indol-1-yl)sulfonyl)phenol] | 0.5 to 20 | ≤ 10 | ≤ 10 | – | –
O=S(=O)(c1cc(Br)cc(Cl)c1O)n1c(-c2cncs2)cc2cc(Cl)ccc21 [I-33, 4-bromo-2-chloro-6-((5-chloro-2-(thiazol-5-yl)-1H-indol-1-yl)sulfonyl)phenol] | 0.5 to 20 | ≤ 10 | ≤ 10 | – | –
Cc1cc2cc(Cl)ccc2n1S(=O)(=O)c1cc(Br)cc(Cl)c1O [I-30, 4-bromo-2-chloro-6-((5-chloro-2-methyl-1H-indol-1-yl)sulfonyl)phenol] | 0.5 to 20 | ≤ 10 | ≤ 10 | – | –
COc1ccc(-c2cc3cc(Cl)ccc3n2S(=O)(=O)c2cc(Br)cc(Cl)c2O)cc1 [I-26, 4-bromo-2-chloro-6-((5-chloro-2-(4-methoxyphenyl)-1H-indol-1-yl)sulfonyl)phenol] | 0.5 to 20 | ≤ 10 | ≤ 10 | – | –
O=S(=O)(c1cc(Br)cc(Cl)c1O)n1c(-c2ccccc2)cc2cc(Cl)ccc21 [I-1, 4-bromo-2-chloro-6-((5-chloro-2-phenyl-1H-indol-1-yl)sulfonyl)phenol] | 0.5 to 20 | ≤ 10 | ≤ 10 | – | –
O=S(=O)(c1cc(Br)cc(Cl)c1O)n1c(-c2cccc(F)c2)cc2cc(Cl)ccc21 [I-40] | 0.5 to 20 | ≤ 10 | ≤ 10 | – | –

The next lines start with results.

IC50 (ACL) [µM] | IC50 (HepG2 cells [1]) [µM] | IC50 (HepG2 cells [2]) [µM] | Compound | IC50 (ACC1) [µM] | IC50 (ACC2) [µM]
0.5 to 20 | ≤ 10 | ≤ 10 | O=S(=O)(c1cc(Br)cc(Cl)c1O)n1c(-c2ccccc2)cc2cc(F)ccc21 [I-42] | – | –
0.5 to 20 | ≤ 10 | ≤ 10 | N#Cc1ccc2c(c1)cc(-c1ccccc1)n2S(=O)(=O)c1cc(Br)cc(Cl)c1O [I-48] | – | –
0.5 to 20 | ≤ 10 | ≤ 10 | Cc1c(-c2ccccc2)n(S(=O)(=O)c2cc(Br)cc(Cl)c2O)c2ccc(Cl)cc12 [I-47] | – | –
0.5 to 20 | ≤ 10 | ≤ 10 | N#Cc1ccc2c(c1)cc(-c1ccc(OC(F)(F)F)cc1)n2S(=O)(=O)c1cc(F)cc(F)c1O [I-81] | – | –
0.5 to 20 | ≤ 10 | ≤ 10 | O=S(=O)(c1cc(F)cc(F)c1O)n1c(-c2ccccc2)cc2cc(Cl)ccc21 [I-61] | – | –
